Data on 16 compounds can be found in US9957299B2, “Peptidomimetic macrocycles” (AILERON THERAPEUTICS, INC., priority 2010, dated 2018).

Numbered stars: 1 amine (or outer) side, 2 acyl side, 3 side chain; on linkers, the order of the positions; unused ones are H or OH. Bridge positions count the residues as written; N and C are the ends. Square brackets hold non-standard residues; d marks the D form. Peptide text beside a SMILES is read from it. * marks the point of attachment. X2 = C[C@@](Cc1c[nH]c2cc(Cl)ccc12)(N[*:1])C(=O)[*:2]; Trp(6-Cl) = N[C@@H](Cc1c[nH]c2cc(Cl)ccc12)C(=O)O; R8 = C=CCCCCCC[C@@](C)(N)C(=O)O; S5 = C=CCCC[C@](C)(N)C(=O)O; Nle = CCCC[C@H](N)C(=O)O; X1 = COCCOCCOCCOC(=O)*; Ac3c = NC1(C(=O)O)CC1

HDMx, sequence (O15151 whole entry, looked up): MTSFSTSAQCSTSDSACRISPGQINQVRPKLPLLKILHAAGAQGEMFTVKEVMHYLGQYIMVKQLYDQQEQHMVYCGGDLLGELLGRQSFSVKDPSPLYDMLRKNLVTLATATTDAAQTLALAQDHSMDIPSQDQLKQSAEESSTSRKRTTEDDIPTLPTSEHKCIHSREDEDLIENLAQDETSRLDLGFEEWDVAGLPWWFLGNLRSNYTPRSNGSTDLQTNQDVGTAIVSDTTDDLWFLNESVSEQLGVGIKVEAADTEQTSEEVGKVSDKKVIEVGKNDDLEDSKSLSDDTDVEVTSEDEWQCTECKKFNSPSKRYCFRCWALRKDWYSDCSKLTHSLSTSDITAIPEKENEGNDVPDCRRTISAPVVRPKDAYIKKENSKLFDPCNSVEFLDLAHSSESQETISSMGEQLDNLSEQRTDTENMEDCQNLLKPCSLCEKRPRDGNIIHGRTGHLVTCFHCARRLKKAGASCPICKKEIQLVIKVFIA

One series concerns the target HDMx (Homo sapiens, UniProt O15151). As to the kind of experiment: FP Competition Blinding Assay | HDMx IC50 (nM).
Details: not given
Compound `CC(=O)N[C@@H](CC(C)C)C(=O)N[C@H](C(=O)N[C@@H](Cc1ccccc1)C(=O)N[C@]1(C)CCCCCCC=CCCC[C@@](C)(C(=O)N[C@@H](C)C(N)=O)NC(=O)[C@H](CC(C)C)NC(=O)[C@H](CCC(N)=O)NC(=O)[C@H](C)NC(=O)[C@H](Cc2c[nH]c3ccccc23)NC(=O)[C@H](Cc2ccc(O)cc2)NC(=O)[C@H](C)NC1=O)[C@@H](C)O` [SP-194, Ac- L T F $r8 A Y W A Q L $ A -NH2] (Ac-LTF[R8]AYWAQL[S5]A-NH2; staple 4-11) had a half-maximal inhibitory concentration (IC50) of 463 nM. Compound `COCCOCCOCCOC(=O)N[C@@H](CC(C)C)C(=O)N[C@H](C(=O)N[C@@H](Cc1ccccc1)C(=O)N[C@]1(C)CCCCCCC=CCCC[C@@](C)(C(=O)N[C@@H](CO)C(N)=O)NC(=O)[C@H](CC(C)C)NC(=O)[C@H](CCC(N)=O)NC(=O)[C@H](C)NC(=O)[C@H](Cc2c[nH]c3ccccc23)NC(=O)[C@H](Cc2ccc(O)cc2)NC(=O)[C@H](C)NC1=O)[C@@H](C)O` [SP-580, mdPEG3-L T F $r8 A Y W A Q L $ S -NH2] (X1-LTF[R8]AYWAQL[S5]S-NH2; staple 4-11) registered an IC50 of 195 nM. Compared with the last compound, the IC50 is about 2.4-fold lower.

Turning to `CC(=O)N[C@@H](CC(C)C)C(=O)N[C@H](C(=O)N[C@@H](Cc1ccccc1)C(=O)N[C@]1(C)CCCCCCC=CCCC[C@@](C)(C(=O)N[C@@H](CO)C(N)=O)NC(=O)[C@H](CC(C)C)NC(=O)[C@H](CCC(N)=O)NC(=O)[C@H](C)NC(=O)[C@H](Cc2c[nH]c3ccccc23)NC(=O)[C@H](Cc2ccc(O)cc2)NC(=O)[C@H](C)NC1=O)[C@@H](C)O` [SP-191, Ac- L T F $r8 A Y W A Q L $ S -NH2] (Ac-LTF[R8]AYWAQL[S5]S-NH2; staple 4-11), the 50% inhibitory concentration (IC50) stood at 97 nM. In turn, `CC(=O)N[C@@H](CC(C)C)C(=O)N[C@H](C(=O)N[C@@H](Cc1ccccc1)C(=O)N[C@]1(C)CCCCCCC=CCCC[C@@](C)(C(=O)N[C@@H](CO)C(N)=O)NC(=O)[C@H](CC(C)C)NC(=O)[C@H](CCC(N)=O)NC(=O)[C@H](C)NC(=O)[C@H](Cc2c[nH]c3ccccc23)NC(=O)[C@H](Cc2ccc(O)cc2)NC(=O)[C@H](Cc2ccccc2)NC1=O)[C@@H](C)O` [SP-267, Ac- L T F $r8 F Y W A Q L $ S -NH2] (Ac-LTF[R8]FYWAQL[S5]S-NH2; staple 4-11) yielded an IC50 of 318 nM.

`CC(=O)N[C@@H](Cc1ccccc1)C(=O)N[C@]1(C)CCCCCCC=CCCC[C@@](C)(C(=O)N[C@@H](C)C(N)=O)NC(=O)[C@H](CC(C)C)NC(=O)C2(CC2)NC(=O)[C@H](CCC(=O)O)NC(=O)[C@H](Cc2c[nH]c3cc(Cl)ccc23)NC(=O)[C@H](Cc2ccc(O)cc2)NC(=O)[C@H](C)NC1=O` [SP-128, Ac- F $r8 A Y 6clW E Ac3c L $ A -NH2] (Ac-F[R8]AY[Trp(6-Cl)]E[Ac3c]L[S5]A-NH2; staple 2-9) came in with a half-maximal inhibitory concentration (IC50) of 967 nM.

For another series, the target named is HDM2 (Homo sapiens, UniProt Q00987). As to the kind of experiment: FP Competition Blinding Assay | HDM2 IC50 (nM).
HDM2, sequence (Q00987 whole entry, looked up): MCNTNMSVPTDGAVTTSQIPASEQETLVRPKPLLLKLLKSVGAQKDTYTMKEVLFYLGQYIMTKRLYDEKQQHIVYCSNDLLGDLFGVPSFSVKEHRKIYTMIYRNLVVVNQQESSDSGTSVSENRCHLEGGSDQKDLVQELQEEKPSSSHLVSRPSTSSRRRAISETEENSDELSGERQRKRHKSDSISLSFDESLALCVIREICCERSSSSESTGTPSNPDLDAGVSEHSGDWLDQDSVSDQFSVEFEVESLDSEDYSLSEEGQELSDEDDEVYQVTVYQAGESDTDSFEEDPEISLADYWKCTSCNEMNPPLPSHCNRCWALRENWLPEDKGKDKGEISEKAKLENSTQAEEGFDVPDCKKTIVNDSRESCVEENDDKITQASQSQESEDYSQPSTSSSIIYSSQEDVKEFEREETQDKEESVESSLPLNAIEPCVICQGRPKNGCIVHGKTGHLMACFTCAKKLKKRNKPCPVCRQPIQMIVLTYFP
Details: not given
`CC(=O)N[C@@H](Cc1c[nH]c2ccccc12)C(=O)N[C@H](C(=O)N[C@@H](Cc1ccccc1)C(=O)N[C@]1(C)CCCCCCC=CCCC[C@@](C)(C(=O)N[C@@H](CO)C(N)=O)NC(=O)[C@H](CC(C)C)NC(=O)[C@H](CCC(N)=O)NC(=O)[C@H](C)NC(=O)[C@H](Cc2c[nH]c3ccccc23)NC(=O)[C@H](Cc2ccc(O)cc2)NC(=O)[C@H](Cc2c[nH]cn2)NC1=O)[C@@H](C)O` [SP-256, Ac- W T F $r8 H Y W A Q L $ S -NH2] (Ac-WTF[R8]HYWAQL[S5]S-NH2; staple 4-11) gave an IC50 of 185 nM.

Compound `COCCOCCOCCOC(=O)N[C@@H](CC(C)C)C(=O)N[C@H](C(=O)N[C@@H](Cc1ccccc1)C(=O)N[C@]1(C)CCCCCCC=CCCC[C@@](C)(C(=O)N[C@@H](CO)C(N)=O)NC(=O)[C@H](CC(C)C)NC(=O)[C@H](CCC(N)=O)NC(=O)[C@H](C)NC(=O)[C@H](Cc2c[nH]c3ccccc23)NC(=O)[C@H](Cc2ccc(O)cc2)NC(=O)[C@H](C)NC1=O)[C@@H](C)O` [SP-580, mdPEG3-L T F $r8 A Y W A Q L $ S -NH2] (X1-LTF[R8]AYWAQL[S5]S-NH2; staple 4-11) came in with an IC50 of 81 nM. Consider `CC(=O)N[C@@H](CC(C)C)C(=O)N[C@H](C(=O)N[C@@H](Cc1ccccc1)C(=O)N[C@]1(C)CCCCCCC=CCCC[C@@](C)(C(=O)N[C@@H](CO)C(N)=O)NC(=O)[C@H](CC(C)C)NC(=O)[C@H](CCC(N)=O)NC(=O)[C@H](C)NC(=O)[C@H](Cc2c[nH]c3ccccc23)NC(=O)[C@H](Cc2ccc(O)cc2)NC(=O)[C@H](C)NC1=O)[C@@H](C)O` [SP-191, Ac- L T F $r8 A Y W A Q L $ S -NH2] (Ac-LTF[R8]AYWAQL[S5]S-NH2; staple 4-11), for which the half-maximal inhibitory concentration (IC50) amounted to 74.9 nM. This IC50 and that of the compound before are within 1.5-fold of each other. On the same count and under the same terms, in the case of `CC(=O)N[C@@H](CC(C)C)C(=O)N[C@H](C(=O)N[C@@H](Cc1ccccc1)C(=O)N[C@]1(C)CCCCCCC=CCCC[C@@](C)(C(=O)N[C@@H](CO)C(N)=O)NC(=O)[C@H](CC(C)C)NC(=O)[C@H](CCC(N)=O)NC(=O)[C@H](C)NC(=O)[C@H](Cc2c[nH]c3ccccc23)NC(=O)[C@H](Cc2ccc(O)cc2)NC(=O)[C@H](C(C)C)NC1=O)[C@@H](C)O` [SP-266, Ac- L T F $r8 V Y W A Q L $ S -NH2] (Ac-LTF[R8]VYWAQL[S5]S-NH2; staple 4-11) it was 66 nM. The same measure, in the same setting: then `CC(=O)N[C@@H](CC(C)C)C(=O)N[C@H](C(=O)N[C@@H](Cc1ccccc1)C(=O)N[C@]1(C)CCCCCCC=CCCC[C@@](C)(C(=O)N[C@@H](CO)C(N)=O)NC(=O)[C@H](CC(C)C)NC(=O)[C@H](CCC(N)=O)NC(=O)[C@H](C)NC(=O)[C@H](Cc2c[nH]c3ccccc23)NC(=O)[C@H](Cc2ccc(O)cc2)NC(=O)[C@H](CCC(=O)O)NC1=O)[C@@H](C)O` [SP-512, Ac- L T F $r8 E Y W A Q F $ S -NH2] (Ac-LTF[R8]EYWAQL[S5]S-NH2; staple 4-11), with 16.2 nM; and `CC(=O)N[C@@H](CC(C)C)C(=O)N[C@H](C(=O)N[C@@H](Cc1ccccc1)C(=O)N[C@]1(C)CCCCCCC=CCCC[C@@](C)(C(=O)N[C@@H](CO)C(N)=O)NC(=O)[C@H](CC(C)C)NC(=O)[C@H](CCC(N)=O)NC(=O)[C@H](CO)NC(=O)[C@H](Cc2c[nH]c3ccccc23)NC(=O)[C@H](Cc2ccc(O)cc2)NC(=O)[C@H](C)NC1=O)[C@@H](C)O` [SP-360, Ac- L T F $r8 A Y W S Q L $ S -NH2] (Ac-LTF[R8]AYWSQL[S5]S-NH2; staple 4-11), with 90 nM.

Test system in the next series: not listed separately
As to the kind of experiment: circular dichroism. To be noted: aqueous, '0% TFE' (buffer not stated; general: 50 mM potassium phosphate pH 7 or water); pH ns; ns °C; 25-50 uM (general text).
With `CC(=O)N[C@@H](CCC(N)=O)C(=O)N[C@@H](CO)C(=O)N[C@@H](CCC(N)=O)C(=O)N[C@@H](CCC(N)=O)C(=O)N[C@H](C(=O)N[C@@H](Cc1ccccc1)C(=O)N[C@]1(C)CCCCCCC=CCCC[C@@](C)(C(=O)N[C@@H](CCC(N)=O)C(N)=O)NC(=O)[C@H](CC(C)C)NC(=O)[C@H](CC(C)C)NC(=O)[C@H](CCCNC(=N)N)NC(=O)[C@H](Cc2c[nH]c3ccccc23)NC(=O)[C@H](CC(C)C)NC(=O)[C@H](CC(N)=O)NC1=O)[C@@H](C)O` (Ac-QSQQTF[R8]NLWRLL[S5]Q-NH2; staple 7-14), the helicity was 77.8%.

Take `CC(=O)N[C@@H](CCC(N)=O)C(=O)N[C@@H](CO)C(=O)N[C@@H](CCC(N)=O)C(=O)N[C@@H](CCC(N)=O)C(=O)N[C@H](C(=O)N[C@@H](Cc1ccccc1)C(=O)N[C@]1(C)CCCCCCC=CCCC[C@@](C)(C(=O)N[C@@H](CCC(N)=O)C(=O)N[C@@H](CC(N)=O)C(N)=O)NC(=O)[C@H](CC(C)C)NC(=O)[C@H](CC(C)C)NC(=O)[C@H](CCCNC(=N)N)NC(=O)[C@](C)(Cc2c[nH]c3cc(Cl)ccc23)NC(=O)[C@H](CC(C)C)NC(=O)[C@H](CC(N)=O)NC1=O)[C@@H](C)O` (Ac-QSQQTF[R8]NL[X2]RLL[S5]QN-NH2; staple 7-14): the helicity amounted to 60.9%.

In the case of `CC(=O)N[C@@H](CC(C)C)C(=O)N[C@H](C(=O)N[C@@H](Cc1ccccc1)C(=O)N[C@@H](CCC(=O)O)C(=O)N[C@@H](Cc1c[nH]cn1)C(=O)N[C@@H](Cc1ccc(O)cc1)C(=O)N[C@@H](Cc1c[nH]c2ccccc12)C(=O)N[C@@H](C)C(=O)N[C@@H](CCC(N)=O)C(=O)N[C@@H](CC(C)C)C(=O)N[C@H](C(=O)N[C@@H](CO)C(N)=O)[C@@H](C)O)[C@@H](C)O`, the helicity is -0.5%. Same read-out and setting: in the case of `CC(=O)N[C@@H](CC(C)C)C(=O)N[C@H](C(=O)N[C@@H](Cc1ccccc1)C(=O)N[C@]1(C)CCCCCCCCCCC[C@@](C)(C(=O)N[C@@H](CO)C(N)=O)NC(=O)[C@H](CC(C)C)NC(=O)[C@H](CCC(N)=O)NC(=O)[C@H](CCCNC(=N)N)NC(=O)[C@H](Cc2c[nH]c3cc(Cl)ccc23)NC(=O)[C@H](Cc2ccc(O)cc2)NC(=O)[C@H](Cc2c[nH]cn2)NC1=O)[C@@H](C)O` it was 74.2%.

On to Ac-MPRFMDYWEGLN-NH2, for which the helicity came out at 7.5%. Still for that read-out and setting: then `CC(=O)N[C@@H](CC(C)C)C(=O)N[C@H](C(=O)N[C@@H](Cc1ccccc1)C(=O)N[C@]1(C)CCCCCCCCCCC[C@@](C)(C(=O)N[C@@H](CO)C(N)=O)NC(=O)[C@H](CC(C)C)NC(=O)[C@H](CCC(N)=O)NC(=O)[C@H](C)NC(=O)[C@H](Cc2c[nH]c3cc(Cl)ccc23)NC(=O)[C@H](Cc2ccc(O)cc2)NC(=O)[C@H](Cc2c[nH]cn2)NC1=O)[C@@H](C)O`, with 69.5%; and `CCCC[C@H](NC(C)=O)C(=O)N1CCC[C@H]1C(=O)N[C@@H](CCCNC(=N)N)C(=O)N[C@@H](Cc1ccccc1)C(=O)N[C@]1(C)CCCCCCC=CCCC[C@@](C)(C(N)=O)NC(=O)[C@H](CC(C)C)NC(=O)[C@H](CC(C)C)NC(=O)[C@H](CCCNC(=N)N)NC(=O)[C@H](Cc2c[nH]c3ccccc23)NC(=O)[C@H](Cc2ccc(O)cc2)NC(=O)[C@H](CC(N)=O)NC1=O` (Ac-[Nle]PRF[R8]NYWRLL[S5]-NH2; staple 5-12), with 54.4%.
